Results taken from PubChem BioAssay AID1259332 (Broad Institute, 2017).
Active and inactive are the calls of the source. How the calls were made is not given here.

Experiment: inhibitors of CD40 signaling, dose response, B cell lineage (AID 1259332);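 further: cells stimulated with CD40 ligand tCD40L; 0% = neutral control wells and -100% = positive control wells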
Conditions: B cell line, CD40 signaling inhibition reporter; at 1.1 µM (top of the series)

Which activity change, negative = inhibition does the source give for `COc1ccc(C#Cc2ccc([C@H]3[C@@H](CO)N4CCCCN(S(=O)(=O)c5cn(C)cn5)C[C@H]34)cc2)cc1` here?
The activity change, negative = inhibition was 15.6% (inactive).

Which activity change, negative = inhibition does the source give for `C/C=C/c1ccc(C2[C@H]3CNC[C@@H]2N3Cc2cccc(OC)c2)cc1` (some centres not stated) here?
Its activity change, negative = inhibition is 19.7% (inactive).

Which activity change, negative = inhibition does the source give for `CC(C)(C)[S@](=O)N1Cc2cc(C(=O)NCC(F)(F)F)nc(-c3cccc(-c4cccc(F)c4)c3)c2[C@@H]1CCO` here?
The activity change, negative = inhibition was 9.18% (inactive).

Same assay, conditions: B cell line, CD40 signaling inhibition reporter; at 3.5 µM (top of the series)

For `CC(C)(C)c1cc(/C=C(\C#N)C(N)=S)cc(C(C)(C)C)c1O`, which activity change, negative = inhibition is on record?
Its activity change, negative = inhibition is 4.91% (inactive).

With `c1cncc(C2=NCCC2)c1` as the molecule, how does the activity change, negative = inhibition read?
The activity change, negative = inhibition was -2.83% (inactive).

With `Oc1cc2c(cc1C(c1ccc(Br)cc1)N1CCCC1)OCO2` (configuration not stated) as the molecule, how does the activity change, negative = inhibition read?
The activity change, negative = inhibition was 16.1% (inactive).

With `CC(C)NC(=O)N1CC(=O)N2[C@H](CO)[C@@H](c3ccc(/C=C/c4ccccc4)cc3)[C@H]2C1` as the molecule, how does the activity change, negative = inhibition read?
Its activity change, negative = inhibition is 6.58% (inactive).

With `O=C(Nc1ccc(C(F)(F)F)cc1)Nc1ccc2c(c1)[C@H]1C[C@@H](CC(=O)N3CCc4ccccc4C3)O[C@@H](CO)[C@H]1O2` as the molecule, how does the activity change, negative = inhibition read?
The activity change, negative = inhibition was -2.03% (inactive).

For `O=C(CCN1CCC(c2ccccc2)C1)c1ccc2c(c1)OCCO2` (configuration not stated), which activity change, negative = inhibition is on record?
The activity change, negative = inhibition was 26.9% (inactive).

Which activity change, negative = inhibition does the source give for `COc1ccc(Cl)cc1NC(=O)Nc1cc(C)nc2ccccc12` here?
The activity change, negative = inhibition was -7.79% (inactive).

Which activity change, negative = inhibition does the source give for `N#C[C@H]1[C@@H](c2ccc(C#CC3CCCCC3)cc2)[C@@H](CO)N1C(=O)Nc1ccc(F)cc1` here?
Its activity change, negative = inhibition is 2.75% (inactive).

With `N#Cc1cccc(-c2ccc([C@@H]3[C@H](CO)N4CCCCN(C(=O)Nc5cccc(F)c5)C[C@@H]34)cc2)c1` as the molecule, how does the activity change, negative = inhibition read?
Its activity change, negative = inhibition is 18.1% (inactive).

Which activity change, negative = inhibition does the source give for `C[C@@H]1CCCCO[C@@H](CN(C)C(=O)C2CCCCC2)[C@@H](C)CN([C@H](C)CO)C(=O)c2cc(NS(=O)(=O)c3ccccc3)ccc2O1` here?
The activity change, negative = inhibition was -0.82% (inactive).

For `CCCNC(=O)N1[C@H](CO)[C@H](c2ccc(-c3cccc(OC)c3)cc2)[C@@H]1C#N`, which activity change, negative = inhibition is on record?
Its activity change, negative = inhibition is 12% (inactive).

For `CCCNC(=O)N1[C@H](C#N)[C@@H](c2ccc(-c3cccc(OC)c3)cc2)[C@H]1CO`, which activity change, negative = inhibition is on record?
Its activity change, negative = inhibition is 1.94% (inactive).

For `Cc1ccccc1-c1ccc(C2[C@@H]3CN(C(=O)Nc4cccc(F)c4)C[C@H]2N3)cc1` (some centres not stated), which activity change, negative = inhibition is on record?
The activity change, negative = inhibition was 7.95% (inactive).

With `COc1ccc(CN2CC3(CN(C(=O)Cc4ccccc4)C3)c3c([nH]c4cc(OC)ccc34)[C@H]2CO)cc1` as the molecule, how does the activity change, negative = inhibition read?
Its activity change, negative = inhibition is -3.26% (inactive).

Same assay, conditions: B cell line, CD40 signaling inhibition reporter; at 10 µM (top of the series)

With `C[C@@H]1CN([C@@H](C)CO)C(=O)c2c(c3ccccc3n2C)-c2ccccc2CO[C@H]1CN(C)S(=O)(=O)c1ccc([N+](=O)[O-])cc1` as the molecule, how does the activity change, negative = inhibition read?
Its activity change, negative = inhibition is -6.57% (inactive).

For `Cc1ccc2nc(-c3cc(-c4ccccc4)no3)cn2c1`, which activity change, negative = inhibition is on record?
Its activity change, negative = inhibition is 34.4% (inactive).

With `C[C@@H]1CN([C@@H](C)CO)S(=O)(=O)c2ccc(C#Cc3ccccc3F)cc2O[C@H]1CN(C)C(=O)Cc1cccnc1` as the molecule, how does the activity change, negative = inhibition read?
Its activity change, negative = inhibition is -17.7% (inactive).

Which activity change, negative = inhibition does the source give for `COc1ccc(S(=O)(=O)N(C)C[C@@H]2Oc3ccc(NC(=O)Nc4ccc(C(F)(F)F)cc4)cc3C(=O)N([C@@H](C)CO)C[C@@H]2C)cc1` here?
The activity change, negative = inhibition was 8.35% (inactive).

With `N=C(N)c1ccc(OCCCCCOc2ccc(C(=N)N)cc2)cc1` as the molecule, how does the activity change, negative = inhibition read?
The activity change, negative = inhibition was -0.281% (inactive).

Which activity change, negative = inhibition does the source give for `CC12CN3CC(C)(CN(C1)C3c1ccc3c(c1)OCO3)C2=O` (configuration not stated) here?
The activity change, negative = inhibition was 6.2% (inactive).

For `Fc1ccccc1/C=C1\CCCC2=C1Nc1nnnn1C2c1ccccc1F` (configuration not stated), which activity change, negative = inhibition is on record?
Its activity change, negative = inhibition is -1.53% (inactive).

Which activity change, negative = inhibition does the source give for `O=C(Nc1ccccc1F)N1CCCCN2[C@H](CO)[C@H](c3ccc(/C=C/c4ccccc4)cc3)[C@H]2C1` here?
The activity change, negative = inhibition was -13.9% (inactive).

With `C[C@@H]1CN([C@@H](C)CO)C(=O)c2ccccc2-c2ccccc2CO[C@@H]1CN(C)C(=O)c1cc(Cl)cc(Cl)c1` as the molecule, how does the activity change, negative = inhibition read?
Its activity change, negative = inhibition is -6.79% (inactive).

For `O=C1C(Br)=C(c2ccccc2)C(c2ccccc2)=C1c1ccccc1`, which activity change, negative = inhibition is on record?
The activity change, negative = inhibition was -7.86% (inactive).

Which activity change, negative = inhibition does the source give for `O=C1C(O)CC2c3ccccc3CC3(CCCC3)N12` (configuration not stated) here?
The activity change, negative = inhibition was 0.899% (inactive).

For `NS(=O)(=O)c1cc2c(cc1C(F)(F)F)NC(Cc1ccccc1)NS2(=O)=O` (configuration not stated), which activity change, negative = inhibition is on record?
The activity change, negative = inhibition was 5.72% (inactive).

With `CC(C)(C)n1cc(C(=O)c2ccc3ccccc3c2O)cn1` as the molecule, how does the activity change, negative = inhibition read?
Its activity change, negative = inhibition is -16.1% (inactive).

For `CC(=O)Nc1ccc(S(=O)(=O)c2ccc(N)cc2)cc1`, which activity change, negative = inhibition is on record?
Its activity change, negative = inhibition is 0.776% (inactive).

For `OC(CCN1CCCCC1)c1ccc(-c2ccccc2)cc1` (configuration not stated), which activity change, negative = inhibition is on record?
Its activity change, negative = inhibition is 40.4% (inactive).

For `COc1ccc(C(=O)/C=C/C(=O)N(CC(=O)NC2CCCCC2)Cc2ccc(F)cc2)c(O)c1`, which activity change, negative = inhibition is on record?
Its activity change, negative = inhibition is -5.51% (inactive).

With `CCc1cc2c(COC(=O)c3cc(S(=O)(=O)N4CCOCC4)ccc3F)cc(=O)oc2cc1O` as the molecule, how does the activity change, negative = inhibition read?
Its activity change, negative = inhibition is 11.4% (inactive).

Which activity change, negative = inhibition does the source give for `COCCn1c(C)cc(C(=O)COC(=O)c2ccc(Br)o2)c1C` here?
The activity change, negative = inhibition was -11.7% (inactive).

With `COc1ccc(S(=O)(=O)Nc2ccc3c(c2)C(=O)N([C@@H](C)CO)C[C@@H](C)[C@H](CN(C)Cc2ccc(C(F)(F)F)cc2)OCCCC[C@@H](C)O3)cc1` as the molecule, how does the activity change, negative = inhibition read?
Its activity change, negative = inhibition is -0.502% (inactive).

With `Cc1noc(C)c1S(=O)(=O)Nc1ccc2c(c1)C(=O)N([C@@H](C)CO)C[C@H](C)[C@@H](CN(C)C(=O)Nc1cccc3ccccc13)OCCCC[C@H](C)O2` as the molecule, how does the activity change, negative = inhibition read?
The activity change, negative = inhibition was -10.1% (inactive).
